Positions of bridges follow the written chain, without caps; N, C: chain ends. Chains are numbered I, II in the order given. No end group written: not given here.
Legend:
[1] = test system: LPS-induced neuroinflammation; experiment: Lipopolysaccharide-induced impairment of social behavior; assay type: in vivo; conditions: rat
Method: The peripheral administration of LPS, the active fragment of bacterial endotoxin, results in an increase in the plasma levels of all proinflammatory cytokines and behavioral depression. LPS-induced behavioral depression was assessed by measuring the reduction of the duration of social interaction during 4-minute sessions. Six- to seven-week-old rats were handled for five days, habituated to the test cages and the experiment room and trained for social interaction with three-week-old juvenile rats introduced into the test cage for four minutes two days before the actual experiment. On the day of the experiment, the rats were intraperitoneally injected (i.p.) with saline or LPS (Escherichia coli 0111:B4; Sigma-Aldrich) dissolved in saline (250 μg/kg). Immediately after the i.p. injection, Ilantide-t (Ila; 10 mg/kg, equivalent to 2.1 μmol/kg), Ana ([…], equivalent to 5.8 μmol/kg) or saline was injected subcutaneously. The volume of all of the injections was 1.0 ml/kg. Six experimental groups were used: vehicle i.p./vehicle s.c. (veh/veh; n = 10), vehicle i.p./Ilantide-t s.c. (veh/Ila; n = 8), vehicle i.p./Ana s.c. (veh/Ana; n = 9), LPS i.p./vehicle s.c. (LPS/veh; n = 10), LPS i.p./Ilantide-t s.c. (LPS/Ila; n = 11) and LPS i.p./Ana s.c. (LPS/Ana; n = 11). The injections and weighing of the rats were performed immediately after the first test session (0 h), and the animals were tested and weighed again 2, 4, 6, 8, and 24 hours later. Different juvenile animals were presented on each occasion. Social interaction consisted of anogenital sniffing, licking and chewing the fur of the juveniles by the experimental animals and was monitored with a video camera. […] The duration of social interaction at each time point is expressed as the percentage of baseline values and was averaged for each experimental group. Social interaction was scored by an observer who was blinded to the treatment of the animals. For evaluation of levels of pro- and anti-inflammatory cytokines in blood, rats were injected with LPS and then immediately with either vehicle (n = 8) or Ilantide-t (n = 8) as described above. In addition, a control group of animals (n = 4) was treated with Ilantide-t alone (control). Blood samples were collected at 0, 2 and 6 hours after injections as described for the pharmacokinetics study and stored at -20°C until use. The levels of IL-6, IFN-γ and IL-10 were determined using corresponding rat ELISA kits according to the manufacturer’s protocols (all from BD Biosciences, San Diego, CA, USA).

[2] = test system: HEK-Blue IL-6 cells (STAT3); experiment: IL-6-induced STAT3 activation, SEAP reporter; assay type: cell-based; conditions: 1.2 pM IL-6, 24 hours, SEAP read at 600 nm
Method: HEK-Blue IL-1β cells that contained an IL-1β-sensitive reporter (InvivoGen, San Diego, CA, USA) and HEK-Blue IL-6 cells that contained an IL-6-sensitive reporter (InvivoGen) were grown at 37°C with 5% CO2 in Dulbecco’s modified Eagle’s medium (DMEM) supplemented with 5% (vol/vol) fetal calf serum (FCS), 4.5 g/L glucose, 2 mM GlutaMAX medium, 100 U/ml penicillin, 100 μg/ml streptomycin (all obtained from Gibco BRL/Life Technologies, Taastrup, Denmark), 100 μg/ml zeocin, 200 μg/ml hygromycin and 100 μg/ml Normocin (all purchased from InvivoGen).
HEK-Blue IL-6 cells were grown as described above. IL-6 cells allow the monitoring of the activation of the signal transducer and activator of transcription 3 (STAT3) pathway specifically in response to IL-6. They express a STAT3-inducible SEAP reporter gene. For the STAT3 activation assay, the cells were treated with 1.2 pM IL-6 alone or together with various concentrations of Ilantide. TNF-α (1.2 pM) was added as a control ligand for both the NF-κB and STAT3 assays. After 24-hour incubation at 37°C, 150 μl of HEK-Blue cell supernatant were added to each well of a 96-well plate together with 50 μl of QUANTI-Blue (InvivoGen), incubated at 37°C in the dark for 40 minutes and measured in an ELISA reader at 600 nm to determine the expression level of the secreted SEAP.

IL-1RI–IL-1β binding = target: T1, IL-1RI–IL-1β binding (Homo sapiens, UniProt P14778); experiment: SPR competition: binding of IL-1RI ectodomain to immobilized IL-1β in the presence of peptide; conditions: three experiments
T1 construct: purchased R&D Systems
T1 sequence (P14778 18-336 limits assumed): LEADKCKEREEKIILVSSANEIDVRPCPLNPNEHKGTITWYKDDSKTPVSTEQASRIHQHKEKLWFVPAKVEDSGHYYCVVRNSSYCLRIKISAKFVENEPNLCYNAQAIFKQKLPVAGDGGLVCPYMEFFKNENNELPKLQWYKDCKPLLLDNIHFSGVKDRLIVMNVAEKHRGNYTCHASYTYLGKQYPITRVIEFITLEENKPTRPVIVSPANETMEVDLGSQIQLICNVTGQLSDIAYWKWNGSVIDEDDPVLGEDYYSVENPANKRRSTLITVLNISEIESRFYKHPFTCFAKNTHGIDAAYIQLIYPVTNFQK
Method: The binding analysis was performed using a Biacore 2000 instrument (GE Healthcare Life Sciences) that contained 150 mM NaCl as running buffer at 25°C with 10 mM sodium phosphate (pH 7.4). The flow rate was 5 μl/min during immobilization. Ilantide peptide, IL-1β or IL-1Ra was immobilized on a CM4 sensor chip according to the manufacturer’s instructions, after which the recombinant ectodomain of IL-1RI (R&D Systems) was injected. The neural cell adhesion molecule (NCAM) immunoglobulin modules 1 and 2 (Ig1 and Ig2) were used as a negative control protein [9]. The data were analyzed using nonlinear curve-fitting with the manufacturer’s software.
Figure 2 Interaction between Ilantide, interleukin 1β, and interleukin 1 receptor antagonist and soluble IL-1 receptor type I. Binding was studied using surface plasmon resonance analysis. […] Binding is expressed as the response difference between the binding of IL-1 receptor type I (IL-1RI) to the sensor chip with the immobilized peptide, IL-1β, or IL-Ra and a blank sensor chip. […] The results from three experiments are expressed as mean RU ± SEM. **P < 0.01 and ***P < 0.001 compared with binding of IL-1RI alone to IL-1β (one-way analysis of variance followed by the Newman-Keuls post hoc test).

I: SGRKSSKMQAKK-NH2 / II: SGRKSSKMQAK / III: SGRKSSKMQA / IV: SGRKSSKMQA (amide I:11-IV:C, I:12-II:C, II:11-III:C; C-terminus assumed) [Ilantide-t]
IL-10 plasma levels ([1]; 2 hours after LPS administration, Ilantide-t 10 mg/kg s.c., ELISA, P < 0.01): increase in IL-10 plasma levels
Plasma levels of proinflammatory cytokines (IL-6 and IFN-γ) ([1]; 6 hours following LPS injection, Ilantide-t 10 mg/kg s.c., ELISA, tendency toward reduction): not statistically significant
Effect on LPS-induced body weight decrease ([1]; 24 hours after LPS 250 μg/kg i.p., Ilantide-t 10 mg/kg, Ana 100 mg/kg s.c., P < 0.05): attenuated the anorexigenic effect of LPS
Effect on LPS-induced depression of social activity (sickness behavior) ([1]; LPS 250 μg/kg i.p., Ilantide-t 10 mg/kg s.c., Ana 100 mg/kg s.c., 2 to 24 hours): attenuated social depression
Inhibition of STAT3 activation induced by IL-6 [2]: did not inhibit
Inhibition of binding between IL-1RI and IL-1β (IL-1RI–IL-1β binding): dose-dependently inhibited

From PMC3923439, “Anti-inflammatory properties of a novel peptide interleukin 1 receptor antagonist” (Journal of Neuroinflammation, 2014)
